The results in this text go back to patent US20240083910A1, “AMIDO-SUBSTITUTED PYRIDYL COMPOUNDS AND METHODS OF USE THEREOF FOR THE TREATMENT OF HERPESVIRUSES” (Merck Sharp & Dohme LLC, priority 2020, published 2024).

The test system of one assay is VZV. Briefly: Viral qPCR assay, VZV. The assay is classed as cell-based, varicella zoster virus. The conditions noted are these: Human alphaherpesvirus 3, 72 h, MeWo or MRC5 cells, 0.04-0.1 pfu/cell, growth medium, viral genome copies by qPCR. The gist of the method: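 VZV strain Street at 0.04-0.1 pfu/cell infected MeWo or MRC5 cells added to 10-point, 3-fold compound dilutions; ~72 h at 37° C. Viral genome copies by TaqMan qPCR against plasmid standard curve, sometimes normalised to PPIA, scaled between uninfected and DMSO-infected controls; EC50 from 4-parameter fit.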
Background: Real-time PCR tracks product formation cycle by cycle.

Another assay relates to HSV-1 Strain F. The experiment in a line: Viral qPCR assay, HSV-1. Format: cell-based, Herpes Simplex Virus type 1. The following applies: Human alphaherpesvirus 1, 72 h, Vero or MRC5 cells, 0.0005-0.004 pfu/cell, growth medium, viral genome copies by qPCR, read-out: HSV1 Cell (EC50). The gist of the method:
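HSV-1 strain F at 0.0005–0.004 pfu/cell infected Vero or MRC5 cells, which were added to a 10-point 3-fold compound dilution and cultured ~72 h at 37 °C. Viral genomes in the lysates were quantified by TaqMan qPCR against a plasmid standard curve, in some runs normalized to cellular PPIA. EC50 came from a 4-parameter fit of % effect.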

Assay [1] deals with T1, Human cytomegalovirus DNA polymerase (Human cytomegalovirus, UniProt P08546).
T1 construct: made in house; host or cells: SF21 insect cells (baculovirus vector)
T1 sequence (P08546 whole entry): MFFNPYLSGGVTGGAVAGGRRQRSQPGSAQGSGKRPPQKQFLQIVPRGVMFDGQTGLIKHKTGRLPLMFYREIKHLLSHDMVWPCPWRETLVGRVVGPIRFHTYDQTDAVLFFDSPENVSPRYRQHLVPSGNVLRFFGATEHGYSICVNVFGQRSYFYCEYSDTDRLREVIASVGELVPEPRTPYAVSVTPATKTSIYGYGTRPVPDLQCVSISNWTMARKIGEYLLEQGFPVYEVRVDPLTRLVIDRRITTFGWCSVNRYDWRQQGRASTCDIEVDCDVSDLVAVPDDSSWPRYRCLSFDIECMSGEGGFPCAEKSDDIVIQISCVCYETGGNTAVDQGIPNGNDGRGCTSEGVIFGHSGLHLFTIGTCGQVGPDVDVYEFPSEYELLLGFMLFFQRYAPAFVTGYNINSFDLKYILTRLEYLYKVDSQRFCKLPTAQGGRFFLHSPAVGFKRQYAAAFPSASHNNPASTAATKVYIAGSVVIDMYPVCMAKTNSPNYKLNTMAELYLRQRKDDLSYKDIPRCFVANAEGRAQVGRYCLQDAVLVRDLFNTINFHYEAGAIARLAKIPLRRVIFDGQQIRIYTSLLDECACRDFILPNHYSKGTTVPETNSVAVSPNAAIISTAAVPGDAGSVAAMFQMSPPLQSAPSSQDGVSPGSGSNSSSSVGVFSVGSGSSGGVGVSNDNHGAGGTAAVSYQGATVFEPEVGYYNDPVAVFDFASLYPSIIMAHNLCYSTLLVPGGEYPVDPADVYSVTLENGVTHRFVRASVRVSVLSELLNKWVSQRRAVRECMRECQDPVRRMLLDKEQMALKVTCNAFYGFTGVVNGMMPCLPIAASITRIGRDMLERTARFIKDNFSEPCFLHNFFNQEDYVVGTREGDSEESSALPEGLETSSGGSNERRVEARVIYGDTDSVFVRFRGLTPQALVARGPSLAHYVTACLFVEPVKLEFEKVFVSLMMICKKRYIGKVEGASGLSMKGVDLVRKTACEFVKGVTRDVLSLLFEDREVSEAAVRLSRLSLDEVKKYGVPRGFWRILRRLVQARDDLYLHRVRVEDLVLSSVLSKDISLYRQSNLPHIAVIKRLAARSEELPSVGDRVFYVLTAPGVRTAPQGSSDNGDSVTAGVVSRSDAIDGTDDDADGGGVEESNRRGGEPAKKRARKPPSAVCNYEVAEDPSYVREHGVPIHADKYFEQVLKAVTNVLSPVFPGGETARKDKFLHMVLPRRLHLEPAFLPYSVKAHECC
Briefly: CMV polymerase assay (AlphaLISA). The conditions noted are these: HCMV polymerase 0.2 nM; 30 min pre-incubation; 60 min at 37° C.; read-out: CMV (IC50). The assay is classed as biochemical. The gist of the method: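 Baculovirus-expressed polymerase (HCMV 0.2 nM, VZV 0.4 nM) preincubated 30 min with compound, then reacted 60 min at 37 °C with 1.6 nM DIG-primer/59-mer template and low-nM dNTPs including 0.8 nM biotin-dUTP. Incorporation detected by AlphaLISA; IC50 from a 4-parameter fit normalized to DMSO and pre-quenched controls.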
(In general: Alpha assays give light when donor and acceptor beads are brought close together.)

Assay [2] concerns the target T2, varicella zoster virus DNA polymerase (Varicella-zoster virus, UniProt P09252).
T2 construct: made in house; host or cells: SF21 insect cells (baculovirus vector)
Briefly: VZV polymerase assay (AlphaLISA). The assay is classed as biochemical. The following applies: VZV polymerase 0.4 nM; 30 min pre-incubation; 60 min at 37° C. As for the experimental part:
Human cytomegalovirus and varicella zoster virus DNA polymerases were expressed via baculovirus vector in SF21 cells and purified. Heterodimeric nucleic acid substrate used in the herpesvirus polymerase reactions was generated by annealing a 59-mer template to a 17-mer digoxigenin-labeled primer. Polymerase (HCMV final concentration of 0.2 nM; VZV final concentration of 0.4 nM) was combined with an inhibitor compound or DMSO in assay buffer (10 mM HEPES, pH 7.5, 25 mM KCl, 25 mM NaCl, 5 mM MgCl2, 5% glycerol, 0.67 mg/ml bovine serum albumin, and 1 mM tris(2-carboxyethyl)phosphine), and this mixture was pre-incubated for 30 minutes at room temperature in 384-well microtiter plates. The polymerization reaction was initiated by the addition of template/primer substrate (final concentration: 1.6 nM), and dNTPs (final concentration: 24 nM dCTP, 24 nMdGTP, 16 nM dATP, 16 nM dTTP, and 0.8 nM biotin-dUTP). After 60 min incubation at 37° C., reactions were terminated with quench buffer (25 mM HEPES pH 7.5, 100 mM NaCl, 0.25% Tween-20, 12 mM EDTA, and 1 mg/ml bovine serum albumin). Incorporation of biotinylated UTP was detected with 2.5-5 ug/ml anti-DIG AlphaLISA acceptor beads and 5-10 ug/ml streptavidin AlphaLISA donor beads (PerkinElmer). Compound effects were normalized to the window defined by the controls (DMSO only and pre-quenched wells) and were fit using a 4-parameter algorithm to report an IC50.

The next assay deals with HCMV Strain AD169. Briefly: Viral qPCR assay, HCMV. The assay is classed as cell-based, Human cytomegalovirus. The following applies: Human betaherpesvirus 5, AD169, MRC5, 72 h, MRC-5 cells, 0.05-0.1 pfu/cell, growth media or 50% fetal bovine serum, viral genome copies by qPCR, read-out: CMV Cell (EC50). An outline of the steps: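 HCMV AD169 at 0.05-0.1 pfu/cell infected MRC-5 cells, added to 10-point 3-fold compound dilutions, in growth medium or medium with 50% FBS; ~72 h at 37°C. Viral genome copies by TaqMan qPCR against plasmid standard curve, normalized to DMSO and uninfected controls; EC50 from 4-parameter fit.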

T2 sequence (P09252 whole entry): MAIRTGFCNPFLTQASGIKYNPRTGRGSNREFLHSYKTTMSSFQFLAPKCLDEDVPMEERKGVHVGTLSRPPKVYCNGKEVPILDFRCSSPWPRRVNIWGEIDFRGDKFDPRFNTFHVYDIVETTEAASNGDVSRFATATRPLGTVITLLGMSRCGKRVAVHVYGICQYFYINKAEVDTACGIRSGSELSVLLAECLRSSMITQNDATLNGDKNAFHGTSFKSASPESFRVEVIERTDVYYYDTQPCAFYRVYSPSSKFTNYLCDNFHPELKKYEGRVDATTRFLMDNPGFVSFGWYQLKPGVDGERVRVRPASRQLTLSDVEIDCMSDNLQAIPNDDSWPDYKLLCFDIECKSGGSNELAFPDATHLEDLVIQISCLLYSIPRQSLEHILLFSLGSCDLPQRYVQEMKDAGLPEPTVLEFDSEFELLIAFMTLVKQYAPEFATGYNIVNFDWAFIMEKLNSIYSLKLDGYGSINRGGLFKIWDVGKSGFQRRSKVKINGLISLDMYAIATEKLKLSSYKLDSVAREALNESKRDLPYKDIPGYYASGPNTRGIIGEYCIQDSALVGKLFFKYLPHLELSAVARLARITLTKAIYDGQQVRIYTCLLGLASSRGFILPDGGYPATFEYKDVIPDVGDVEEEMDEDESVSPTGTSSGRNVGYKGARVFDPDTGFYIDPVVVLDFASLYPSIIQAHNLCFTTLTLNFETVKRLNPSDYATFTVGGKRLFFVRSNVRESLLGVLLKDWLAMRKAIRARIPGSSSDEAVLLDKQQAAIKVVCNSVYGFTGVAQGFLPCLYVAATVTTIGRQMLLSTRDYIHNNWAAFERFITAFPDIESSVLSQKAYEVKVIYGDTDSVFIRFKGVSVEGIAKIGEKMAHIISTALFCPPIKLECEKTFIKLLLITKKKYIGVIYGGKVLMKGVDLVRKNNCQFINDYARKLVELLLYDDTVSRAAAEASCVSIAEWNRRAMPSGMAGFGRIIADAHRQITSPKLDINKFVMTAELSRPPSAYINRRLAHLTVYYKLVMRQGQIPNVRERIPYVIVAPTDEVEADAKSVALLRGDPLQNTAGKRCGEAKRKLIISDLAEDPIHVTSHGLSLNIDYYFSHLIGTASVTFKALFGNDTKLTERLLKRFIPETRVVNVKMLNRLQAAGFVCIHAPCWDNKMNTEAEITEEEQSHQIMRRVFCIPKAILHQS

Take `COc1nc(-c2cnc(C(C)(C)O)s2)c(O[C@H]2CCN3C(=O)OC[C@@H]3C2)cc1C(=O)NCc1ccc(Cl)cc1` [Compound 19]: the EC50 in the assay with VZV amounted to 204 nM; in the assay with HSV-1 Strain F, 96.9 nM; with HCMV Strain AD169, 157 nM. Besides, the IC50 in assay [1] was determined as 5.55 nM; in assay [2], 2.91 nM.
In the same order, the values of `COc1nc(-c2cnn(C3CC3)c2)c(O[C@H]2CCN3C(=O)OC[C@@H]3C2)cc1C(=O)NCc1ccc(Cl)cc1` [Compound 22] are 129 nM, 93 nM, 170 nM, 3.69 nM and 4.84 nM.
Take `COc1nc(-c2cnn3c2CCC3)c(O[C@H]2CCN3C(=O)OC[C@@H]3C2)cc1C(=O)NCc1ccc(Cl)cc1` [Compound 24]: the EC50 in the assay with VZV came out at 390 nM; in the assay with HSV-1 Strain F it was 195 nM; in the assay on HCMV Strain AD169, 200 nM. In addition, the IC50 worked out at 7.58 nM in assay [1] and 4.03 nM in assay [2].
For `COc1nc(-c2ccnnc2)c(O[C@H]2CCN3C(=O)OC[C@@H]3C2)cc1C(=O)NCc1ccc(Cl)cc1` [Compound 37], in that order: 178 nM, 144 nM, 180 nM, 8.81 nM and 8.24 nM.
In the same order, the values of `COc1nc(-c2cncnc2)c(O[C@H]2CCN3C(=O)OC[C@@H]3C2)cc1C(=O)NCc1ccc(Cl)cc1` [Compound 38] are 150 nM, 83.1 nM, 111 nM, 9.81 nM and 5.86 nM.
In the same order, the values of `COc1nc(-c2cccnc2)c(O[C@H]2CCN3C(=O)OC[C@@H]3C2)cc1C(=O)NCc1ccc(Cl)cc1` [Compound 40] are 200 nM, 123 nM, 206 nM, 15.9 nM and 10.2 nM.
As to `COc1nc(-c2cnc(N)c(F)c2)c(O[C@H]2CCN3C(=O)OC[C@@H]3C2)cc1C(=O)NCc1ccc(Cl)cc1` [Compound 46], the EC50 in the assay with VZV was 121 nM; in the assay with HSV-1 Strain F, 51.6 nM; in the assay on HCMV Strain AD169, 165 nM. In addition, the figures for the IC50 in assay [1] and in assay [2] were 4.69 nM and 1.53 nM, respectively.
For `COc1nc(-c2cnn(C(F)F)c2)c(O[C@H]2CCN3C(=O)OC[C@@H]3C2)cc1C(=O)NCc1ccc(Cl)c(F)c1` [Compound 55], in that order: 178 nM, 102 nM, 161 nM, 3.16 nM and 5.38 nM.
In the same order, the values of `COc1nc(-c2cnn(C(F)F)c2)c(O[C@H]2CCN3C(=O)OC[C@@H]3C2)cc1C(=O)NCc1ccc(C#N)cc1` [Compound 56] are 123 nM, 36.3 nM, 102 nM, 2.08 nM and 6.48 nM.
In the same order, the values of `COc1nc(-c2cnn(C(F)F)c2)c(O[C@H]2CCN3C(=O)OC[C@@H]3C2)cc1C(=O)NCc1ccc(C#N)c(F)c1` [Compound 58] are 103 nM, 63.4 nM, 59.3 nM, 2.95 nM and 0.259 nM.
For the compound `COc1nc(-c2cnco2)c(O[C@H]2CCN3C(=O)OC[C@@H]3C2)cc1C(=O)NCc1ccc(C#N)cc1` [Compound 60], the EC50 in the assay on VZV was 90.4 nM; with HSV-1 Strain F it was 65 nM; in the assay on HCMV Strain AD169 it was 29.8 nM. Further, the IC50 worked out at 6.32 nM in assay [1] and 0.351 nM in assay [2].
As to `COc1nc(-c2nc(C)ns2)c(O[C@H]2CCN3C(=O)OC[C@@H]3C2)cc1C(=O)NCc1ccc(Cl)cc1` [Compound 61], the EC50 was 70.8 nM in the assay on VZV, 49 nM with HSV-1 Strain F and 60.1 nM in the assay on HCMV Strain AD169. The IC50 in assay [1] stood at 1.44 nM; in assay [2] it was 0.0412 nM.
For `COc1nc(-c2ncco2)c(O[C@H]2CCN3C(=O)OC[C@@H]3C2)cc1C(=O)NCc1ccc(Cl)cc1` [Compound 62], the EC50 in the assay on VZV was found to be 157 nM; in the assay with HSV-1 Strain F, 129 nM; with HCMV Strain AD169 it was 73 nM. Also, the IC50 in assay [1] was determined as 4.3 nM; in assay [2], 0.252 nM.
For `COc1nc(N2CC(F)(F)C2)c(O[C@H]2CCN3C(=O)OC[C@@H]3C2)cc1C(=O)NCc1ccc(Cl)cc1` [Compound 65], in that order: 758 nM, 877 nM, 376 nM, 16.4 nM and 5.28 nM.
On to `COc1nc(N2CC(C(C)(C)O)C2)c(O[C@H]2CCN3C(=O)OC[C@@H]3C2)cc1C(=O)NCc1ccc(Cl)cc1` [Compound 70], for which the EC50 in the assay with VZV was 409 nM; in the assay on HSV-1 Strain F, 278 nM; in the assay with HCMV Strain AD169, 194 nM. The IC50 in assay [1] is 15 nM; in assay [2], 14.5 nM.
In the same order, the values of `COc1nc(-c2nc(C)no2)c(O[C@H]2CCN3C(=O)OC[C@@H]3C2)cc1C(=O)NCc1ccc(Cl)cc1` [Compound 82] are 103 nM, 73.9 nM, 83.5 nM, 8.36 nM and 0.0532 nM.
In the same order, the values of `COc1nc(-c2nnc(C3CC3)s2)c(O[C@H]2CCN3C(=O)OC[C@@H]3C2)cc1C(=O)NCc1ccc(Cl)cc1` [Compound 83] are 110 nM, 83.5 nM, 153 nM, 11.7 nM and 6.05 nM.
In the same order, the values of `O=C(NCc1ccc(Cl)cc1)c1cc(O[C@H]2CCN3C(=O)OC[C@@H]3C2)c(-c2cnn(C(F)F)c2)nc1OCCO` [Compound 84] are 140 nM, 113 nM, 116 nM, 3.33 nM and 0.627 nM.
Consider `COCCOc1nc(-c2cnn(C(F)F)c2)c(O[C@H]2CCN3C(=O)OC[C@@H]3C2)cc1C(=O)NCc1ccc(Cl)cc1` [Compound 85], for which the EC50 in the assay on VZV was found to be 342 nM; with HSV-1 Strain F, 143 nM; in the assay on HCMV Strain AD169 it was 187 nM. For the same compound, the IC50 is 15.6 nM in assay [1] and 1.47 nM in assay [2].
On to `CC(C)(O)COc1nc(-c2cnn(C(F)F)c2)c(O[C@H]2CCN3C(=O)OC[C@@H]3C2)cc1C(=O)NCc1ccc(Cl)cc1` [Compound 86], for which the EC50 in the assay on VZV was found to be 232 nM; with HSV-1 Strain F, 130 nM; in the assay with HCMV Strain AD169 it was 213 nM. Also, the IC50 in assay [1] turned out to be 8.84 nM; in assay [2], 2.96 nM.
For `COc1nc(Br)c(O[C@H]2CCN3C(=O)OC[C@@H]3C2)cc1C(=O)NCc1ccc(Cl)cc1` [Int-3], in that order: 651 nM, 832 nM, 822 nM, 55.9 nM and 21.3 nM.

In general, EC50 refers to the concentration at which the effect is half-maximal. What is called IC50 is the concentration that gives 50% inhibition.
